Series [1] concerns the target T1, Tyrosinase (Agaricus bisporus, UniProt O42713).
T1 sequence (O42713 whole entry): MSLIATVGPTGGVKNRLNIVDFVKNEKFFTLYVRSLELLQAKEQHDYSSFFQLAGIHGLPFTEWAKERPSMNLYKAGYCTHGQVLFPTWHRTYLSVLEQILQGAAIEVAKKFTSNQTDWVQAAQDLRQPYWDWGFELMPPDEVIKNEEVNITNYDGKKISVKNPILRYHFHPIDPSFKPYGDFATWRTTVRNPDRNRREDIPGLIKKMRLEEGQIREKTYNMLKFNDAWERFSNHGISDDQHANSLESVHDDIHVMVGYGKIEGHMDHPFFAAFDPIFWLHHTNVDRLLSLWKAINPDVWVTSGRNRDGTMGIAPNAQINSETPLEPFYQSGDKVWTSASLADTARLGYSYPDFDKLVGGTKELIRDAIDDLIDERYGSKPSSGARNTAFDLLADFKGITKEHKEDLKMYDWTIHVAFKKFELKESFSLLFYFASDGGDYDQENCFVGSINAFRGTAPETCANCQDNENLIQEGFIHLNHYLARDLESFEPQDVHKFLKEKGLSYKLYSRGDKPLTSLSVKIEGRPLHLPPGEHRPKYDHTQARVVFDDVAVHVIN
Description: Inhibition of mushroom tyrosinase activity after 90 mins by spectrophotometry

For series [2], the target named is T1, Tyrosinase. This is another data set of the same source.
Description: Inhibition of mushroom tyrosinase activity after 30 mins by spectrophotometry
Series [3] concerns Radical scavenging activity.
Description: Antioxidant activity assessed as DPPH radical scavenging activity incubated at 40 degC in dark after 30 mins
For series [4], the target named is T1, Tyrosinase. The source holds these as a separate data set.
Description: Inhibition of mushroom tyrosinase activity after 150 mins by spectrophotometry
Series [5] is described as follows: Ratio of Trolox IC50 to compound IC50 for FeCl2-induced lipid peroxidation. In kind it is physicochemical.
Series [6] can be described thus: Ratio of Trolox IC50 to compound IC50 for ABTS radical scavenging activity.
Series [7] can be described thus: Ratio of Trolox IC50 to compound IC50 for DPPH radical scavenging activity.

Structures are written as SMILES.

A word on the IC50: it is the concentration at which inhibition is half-maximal. A higher IC50 goes with lower potency. Consider `COc1ccc(CC(=O)c2cc(O)c(O)cc2O)cc1`, for which the IC50 against Tyrosinase [1] was 144 µM; against Tyrosinase [2] it was 84.4 µM; in series [3], 21.5 µM; against Tyrosinase [4], 197 µM.

Take `COc1cc(O)c(C(=O)Cc2ccccc2)cc1O`: half-maximal inhibition in series [3] (IC50) was put at 20.3 µM.

On to `COc1ccc(CC(=O)c2ccc(O)c(O)c2O)cc1OC`, for which the IC50 at Tyrosinase [1] was determined as 132 µM; against Tyrosinase [2], 229 µM; in series [3], 4.34 µM; at Tyrosinase [4], 140 µM. Also, in series [5], the “Ratio IC50” value is recorded as 5.

Regarding `COc1ccc(CC(=O)c2ccc(O)c(O)c2O)cc1`, the IC50 is 203 µM against Tyrosinase [1], > 300 µM against Tyrosinase [2], 21.6 µM in series [3] and 212 µM against Tyrosinase [4].

Consider `COc1ccc(CC(=O)c2c(O)cc(O)cc2O)cc1`, for which the IC50 at Tyrosinase [1] is 214 µM; on Tyrosinase [2], 71 µM; in series [3] it was 10.8 µM; against Tyrosinase [4], 230 µM.

In the case of `COc1ccc(CC(=O)c2ccc(O)c(O)c2)cc1`, the concentration for half-maximal inhibition (IC50) was 168 µM against Tyrosinase [1], > 300 µM against Tyrosinase [2], 75.9 µM in series [3] and 178 µM against Tyrosinase [4].

Take `O=C(Cc1ccc(O)cc1)c1ccc(O)c(O)c1O`: the Ratio IC50 in series [6] was found to be 10. For the same compound, the IC50 is > 300 µM on Tyrosinase [1], > 300 µM against Tyrosinase [2], 5.69 µM in series [3] and > 500 µM against Tyrosinase [4].

Regarding `COc1ccc(CC(=O)c2ccc(O)cc2O)cc1OC`, the 50% inhibitory concentration (IC50) stood at 209 µM against Tyrosinase [1], 112 µM against Tyrosinase [2], 35.1 µM in series [3] and 240 µM against Tyrosinase [4].

As to `O=C1O[C@H]([C@@H](O)CO)C(O)=C1O` [ASCORBIC ACID], the IC50 in series [3] came out at 73.7 µM.

In series [3], `COc1ccc(CC(=O)c2c(O)cc(O)cc2O)cc1OC` gave an IC50 of 1.35 µM.

`Cc1c(C)c2c(c(C)c1O)CCC(C)(C(=O)O)O2` (stereo not given) [TROLOX]: the IC50 in series [3] was determined as 9.2 µM.

As for `COc1ccc(CC(=O)c2ccc(O)cc2O)cc1` [ONONETIN], the IC50 on Tyrosinase [1] stood at 160 µM; at Tyrosinase [2] it was 78.9 µM; in series [3], 57.4 µM; on Tyrosinase [4], 181 µM.

In series [3], `O=C(Cc1ccccc1)c1c(O)cc(O)cc1O` returned an IC50 of 12.2 µM.

`COc1ccc(CC(=O)c2ccc(O)c(O)c2)cc1OC` yielded an IC50 in series [3] of 2.53 µM.

Regarding `O=C(Cc1ccc(O)cc1)c1c(O)cc(O)cc1O`, the IC50 at Tyrosinase [1] is > 300 µM; at Tyrosinase [2], > 300 µM; in series [3] it was 22.8 µM; at Tyrosinase [4], 261 µM.

In the case of `COc1ccc(C(=O)Cc2ccc(O)cc2)c(O)c1O`, the concentration for half-maximal inhibition (IC50) against Tyrosinase [1] is 43.1 µM; against Tyrosinase [2], 43.4 µM; in series [3] it was 25.7 µM; on Tyrosinase [4], 46.1 µM.

Turning to `O=C(Cc1ccc(O)cc1)c1ccc(O)cc1O`, the half-maximal inhibitory concentration (IC50) on Tyrosinase [1] was determined as 136 µM; at Tyrosinase [2], 178 µM; in series [3] it was 25.2 µM; against Tyrosinase [4] it was 172 µM.

In series [3], `O=C(Cc1ccc(O)cc1)c1cc(O)c(O)cc1O` displayed an IC50 of 0.69 µM. For the same compound, the Ratio IC50 in series [7] came out at 13.

Take `COc1ccc(CC(=O)c2cc(O)c(C)c(C)c2O)cc1`: the IC50 in series [3] came to 21.9 µM.

Source of the values: ChEMBL document CHEMBL1152962 (Bioorg Med Chem, 2009).
